Literature values, collected in US20230082651A1, “STABLE AQUEOUS COMPOSITIONS OF PLANTS EXTRACTS AND METHODS OF MAKING THE SAME” (Nulixir Inc., priority 2021, published 2023).

Columns and labels:
[1] = water and n-octanol; categorization at pH=7 unless stated otherwise
[2] = as a function of water content

Compound	log P [1]	solubility in ethanol [2]
hericerin	~6.4	
(R)-kawain	~2.7	
CC(C)=CCC[C@](C)(O[C@@H]1O[C@H](CO)[C@@H](O)[C@H](O)[C@H]1O)[C@H]1CC[C@]2(C)[C@@H]1[C@H](O)C[C@@H]1[C@@]3(C)CC[C@H](O)C(C)(C)[C@@H]3[C@@H](O[C@@H]3O[C@H](CO)[C@@H](O)[C@H](O)[C@H]3O)C[C@]12C [ginsenoside rgl]	~0.8	
N#C[C@@]1(O[C@@H]2O[C@H](CO)[C@@H](O)[C@H](O)[C@H]2O)C=C[C@@H](O)C1 [tetraphyllin B]	~−2.5	
bacopaside B	~2.8	
CC(C)=C[C@H]1C[C@](C)(O)[C@H]2[C@H]3CC[C@@H]4[C@@]5(C)CC[C@H](O[C@@H]6O[C@H](CO)[C@@H](O)[C@H](O[C@@H]7O[C@H](CO)[C@@H](O)[C@H](O)[C@H]7O)[C@H]6O[C@@H]6O[C@@H](CO)[C@H](O)[C@H]6O)C(C)(C)[C@@H]5CC[C@@]4(C)[C@@]34CO[C@@]2(C4)O1 [bacoside A3]	~2.1	
tortuosomine	~3	
CC(C)=C[C@@H]1CO[C@]23C[C@]4(CO2)[C@H](CC[C@@H]2[C@@]5(C)CC[C@H](O[C@@H]6OC[C@H](O)[C@H](O[C@@H]7O[C@H](CO)[C@@H](O)[C@H](O)[C@H]7O)[C@H]6O[C@@H]6O[C@@H](CO)[C@H](O)[C@H]6O)C(C)(C)[C@@H]5CC[C@]24C)[C@H]3[C@@]1(C)O [bacopasaponin C]	~2	
COc1ccc([C@@]23C=CC(=O)C[C@@H]2N(C)CC3)cc1OC [mesembrenone]	~1.3	
COc1cc2c(c(OC)c1OC)-c1c(cc(OC)c(OC)c1OC)C[C@](C)(O)[C@@H](C)C2 [(+)-schisandrin]	~5	
herinacine A	~2.5	
COc1cc(/C=C\c2ccc(OC)c(O)c2)oc(=O)c1 [11-hydroxyyangonin]	~2.2	
CC(C)=CCC[C@](C)(O[C@@H]1O[C@H](CO[C@@H]2O[C@H](CO)[C@@H](O)[C@H](O)[C@H]2O)[C@@H](O)[C@H](O)[C@H]1O)[C@H]1CC[C@]2(C)[C@@H]1[C@H](O)C[C@@H]1[C@@]3(C)CC[C@H](O[C@@H]4O[C@H](CO)[C@@H](O)[C@H](O)[C@H]4O[C@@H]4O[C@H](CO)[C@@H](O)[C@H](O)[C@H]4O)C(C)(C)[C@@H]3CC[C@]12C [ginsenoside rb1]	~−1	
COc1ccc2cc3[n+](cc2c1OC)CCc1cc2c(cc1-3)OCO2 [berberine]		decreases rapidly with water content
COC1=CC(=O)O[C@@H](CCc2ccc3c(c2)OCO3)C1 [7,8-dihydromethysticin]	~2.2	
COc1ccc(CCc2cc(OC)cc(=O)o2)cc1 [7,8-dihydroyangonin]	~2.9	
COc1ccc([C@@]23CCC(=O)C[C@@H]2N(C)CC3)cc1OC [mesembrine]	~1.5	
CC(C)=C[C@H]1C[C@](C)(O)[C@@H]2[C@H]3CC[C@@H]4[C@@]5(C)CC[C@H](O[C@@H]6OC[C@H](O)[C@H](O[C@@H]7O[C@H](CO)[C@@H](O)[C@H](O)[C@H]7O)[C@H]6O[C@@H]6O[C@@H](CO)[C@H](O)[C@H]6O)C(C)(C)[C@@H]5CC[C@@]4(C)[C@@]34CO[C@@]2(C4)O1 [bacopaside X]	~2.2	
COc1nc2c(c(=O)n1C)n(C)c(=O)n2C [methylliberine]	~−0.083	
COC1=CC(=O)OC(/C=C/c2ccc(OC)cc2)C1 (stereo not drawn) [5,6-dihydroyangonin]	~2.5	
COc1cc2c(c(OC)c1OC)-c1c(cc(OC)c(OC)c1OC)C[C@H](C)[C@H](C)C2 [(−)-schisandrin A]	~3.6	
COc1ccc(C23C=CC(O)CC2N(C)CC3)cc1OC (stereo not drawn) [mesembrenol]	~2.4	
COc1cc([C@H]2Oc3cc(O)c4c(=O)c(O)c(-c5ccc(O)cc5)oc4c3O[C@@H]2CO)ccc1O [rhodiolin]	~2	
CC1=C(CO)C(=O)O[C@@H]([C@@H](C)[C@H]2CC[C@H]3[C@@H]4C[C@H](Cl)[C@]5(O)[C@@H](O)C=CC(=O)[C@]5(C)[C@H]4CC[C@]23C)C1 [6a-chloro-5b-hydroxywithaferin A]	~3.2	
schisandroside C	~1.6	
COc1c2c(cc3c1-c1c(cc4c(c1OC)OCO4)C[C@H](C)[C@H](C)C3)OCO2 [(−)-schisandrin C]	~3.5	
CC(=O)OC1C=CC(=O)N(C(=O)CCc2ccccc2)C1 (stereo not drawn) [pipermethystine]	~1.8	
